Results as given in patent US20050101595A1, “N-containing cycloalkyl-substituted amino-thiazole derivatives and pharmaceutical compositions for inhibiting cell proliferation and methods for their use” (PFIZER INC., priority 2003, published 2005).
Where a name gives a salt, the structure may show the parent alone. Read-outs that look alike come from different tables or passages of the source.

How the values were obtained:
CDK2/Cyclin A = CDK2/Cyclin A (Homo sapiens, UniProt P24941); assay: Inhibition of CDK2/Cyclin A Retinoblastoma Kinase Activity; type: biochemical; details: apparent Ki, CDK2/proteolyzed cyclin A, Rb fragment substrate, 25 μM ATP
In short: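 CDK2 (10 or 19 nM), insect-cell expressed, gel-filtration purified with truncated cyclin A; Rb fragment substrate; 25 μM ATP; 10 mM HEPES pH 7.4, 10 mM MgCl2; 30° C, 60 or 75 min; EDTA stop; phosphocellulose/nitrocellulose capture, phosphorimager. % inhibition vs DMSO control, no-enzyme background subtracted.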

HCT-116 cell line = assay: Inhibition of cell growth, tetrazolium salt (MTT) assay; type: cell-based; details: Homo sapiens, HCT-116, 120 h, MTT, three to five days, read-out: HCT-116 IC50
In short: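 Growth inhibition is scored relative to cells receiving only 0.5% (v/v) DMSO. Plated cells rest 4 h, then take compound for three to five days at 37° C; MTT reduction to formazan is read at 540 nm.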

[1] = target: human CDK4 and genetically truncated (1-264) cyclin D3 (Homo sapiens, UniProt P11802); assay: Inhibition of CDK4/Cyclin D Retinoblastoma Kinase Activity; type: biochemical; details: for Ki: apparent Ki, CDK4/truncated cyclin D3, Rb fragment substrate, 25 μM ATP
In short: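 The enzyme complex (5 nM), expressed in co-infected insect cells, was incubated with recombinant Rb fragment, 25 μM radiolabelled ATP and 2% DMSO at 30 °C. Reactions were stopped with EDTA after 20 minutes, or 60 minutes for tight-binding inhibitors. Apparent Ki values came from competitive inhibition fits.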

human CDK4 and genetically truncated (1-264) cyclin D3, sequence (P11802 whole entry, the tested form may be a part): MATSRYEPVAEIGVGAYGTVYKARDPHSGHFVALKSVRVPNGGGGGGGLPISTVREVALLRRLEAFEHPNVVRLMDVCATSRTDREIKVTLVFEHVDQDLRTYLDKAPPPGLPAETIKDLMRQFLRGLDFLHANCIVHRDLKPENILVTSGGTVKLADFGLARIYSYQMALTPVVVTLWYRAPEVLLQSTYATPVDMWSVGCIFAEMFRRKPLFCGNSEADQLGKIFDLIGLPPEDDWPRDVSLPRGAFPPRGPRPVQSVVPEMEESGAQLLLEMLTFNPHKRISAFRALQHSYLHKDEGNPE
human CDK4 and genetically truncated (1-264) cyclin D3, sequence (P30281 1-264 partner): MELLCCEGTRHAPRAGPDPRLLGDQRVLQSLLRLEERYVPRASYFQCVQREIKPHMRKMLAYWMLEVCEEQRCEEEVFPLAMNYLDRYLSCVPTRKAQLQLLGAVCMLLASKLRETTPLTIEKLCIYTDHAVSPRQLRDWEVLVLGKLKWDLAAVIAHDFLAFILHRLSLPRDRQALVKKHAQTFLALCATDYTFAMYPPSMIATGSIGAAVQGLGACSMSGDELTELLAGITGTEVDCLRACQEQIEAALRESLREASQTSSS

Ki (CDK2/Cyclin A) [nM] | IC50 (HCT-116 cell line; first HCT-116 column (c4)) [nM] | IC50 (HCT-116 cell line; second HCT-116 column (c5)) [nM] | Ki [1] [nM] | inhibition at 0.05 µM [1] [%] | Compound
0.28 | 160 | 1600 | 0.28 | – | Cc1ncc(-c2ccc(S(=O)(=O)N3CCC(Nc4nc(N)c(C(=O)c5c(F)cccc5F)s4)CC3)cc2)[nH]1 [Example F33, 1-(4-Amino-2-{1-[4-(2-methyl-1H-imidazol-4-yl)-benzenesulfonyl]-piperidin-4-ylamino}-thiazol-5-yl)-1-(2,6-difluoro-phenyl)-methanone Dihydrochloride]
< 1 | 1500 | 2600 | 0.51 | – | Nc1nc(NC2CCN(S(=O)(=O)c3ccc(-c4ncc[nH]4)cc3)CC2)sc1C(=O)c1c(F)cccc1F [Example F34]
76 | 1600 | 2600 | 340 | – | N#Cc1ccc(S(=O)(=O)N2CCCC(Nc3nc(N)c(C(=O)c4c(F)cccc4F)s3)C2)cc1 (stereo not drawn) [Example F35, 4-{3-[4-Amino-5-(2,6-difluoro-benzoyl)-thiazol-2-ylamino]-piperidine-1-sulfonyl}-benzonitrile]
480 | > 5000 | > 5000 | 780 | – | CC(=O)Nc1ccc(S(=O)(=O)N2CCCC(Nc3nc(N)c(C(=O)c4c(F)cccc4F)s3)C2)cc1 (stereo not drawn) [Example F36, N-(4-{3-[4-Amino-5-(2,6-difluoro-benzoyl)-thiazol-2-ylamino]-piperidine-1-sulfonyl}-phenyl)-acetamide]
430 | 700 | 1500 | 1100 | – | CS(=O)(=O)N1CCCC(Nc2nc(N)c(C(=O)c3c(F)cccc3F)s2)C1 (stereo not drawn) [Example F37, [4-Amino-2-(1-methanesulfonyl-piperidin-3-ylamino)-thiazol-5-yl]-(2,6-difluoro-phenyl)-methanone]
0.8 | 790 | > 5000 | 2 | – | COC(=O)CCc1ccc(S(=O)(=O)N2CCC(Nc3nc(N)c(C(=O)c4c(F)cccc4F)s3)CC2)cc1 [Example F46]
0.27 | 900 | 2300 | 0.69 | – | Nc1nc(NC2CCN(S(=O)(=O)c3cnc(Cl)nc3)CC2)sc1C(=O)c1c(F)cccc1F [Example F47]
7.6 | 3200 | 5000 | – | 37 | Cn1cc(S(=O)(=O)N2CCC(Nc3nc(N)c(C(=O)c4c(F)cccc4F)s3)CC2)nc1Br [Example F48, {4-Amino-2-[1-(2-bromo-1-methyl-1H-imidazole-4-sulfonyl)-piperidin-4-ylamino]-thiazol-5-yl}-(2,6-difluoro-phenyl)-methanone]
1.1 | 280 | 2600 | 3.2 | – | Nc1nc(NC2CCN(S(=O)(=O)c3ccc(Br)s3)CC2)sc1C(=O)c1c(F)cccc1F [Example F50, 1-{4-Amino-2-[1-(5-bromo-thiophene-2-sulfonyl)-piperidin4-ylamino]-thiazol-5-yl}1-(2,6-difluoro-phenyl)-methanone]
1.5 | 300 | 630 | 5.5 | – | Nc1nc(NC2CCN(S(=O)(=O)c3cccs3)CC2)sc1C(=O)c1c(F)cccc1F [Example F51, {4-Amino-2-[1-(thiophene-2-sulfonyl)-piperidin4-ylamino]-thiazol-5-yl}-(2,6-difluoro-phenyl)-methanone]
1 | 93 | 500 | 0.52 | – | CN1CC[C@H](c2ccc(S(=O)(=O)N3CCC(Nc4nc(N)c(C(=O)c5c(F)cccc5F)s4)CC3)cc2)C1 [Example F52, (4-Amino-2-{1-[4-(1-methyl-pyrrolidin-3R-yl)-benzenesulfonyl]-piperidin-4-ylamino}-thiazol-5-yl)-(2,6-difluoro-phenyl)-methanone]
1.3 | 90 | 500 | 0.61 | – | CN1CC[C@@H](c2ccc(S(=O)(=O)N3CCC(Nc4nc(N)c(C(=O)c5c(F)cccc5F)s4)CC3)cc2)C1 [Example F53, (4-Amino-2-{1-[4-(1-methyl-pyrrolidin-3S-yl)-benzenesulfonyl]-piperidin-4-ylamino}-thiazol-5-yl)-(2,6-difluoro-phenyl)-methanone]
1.4 | 120 | > 500 | 0.64 | – | CN(C)CCN(C)c1ccc(S(=O)(=O)N2CCC(Nc3nc(N)c(C(=O)c4c(F)cccc4F)s3)CC2)cn1 [Example G1, Trifluoroacetic Acid Salt]
< 1 | 1700 | > 5000 | 1.2 | – | Nc1nc(NC2CCN(S(=O)(=O)c3ccc(NCCO)nc3)CC2)sc1C(=O)c1c(F)cccc1F [Example G3, 1-(4-Amino-2{1-[6-(2-hydroxy-ethylamino)-pyridine-3-sulfonyl]-piperidin-4-ylamino}-thiazol-5-yl)-1-(2,6-difluoro-phenyl)-methanone]
1.4 | 1500 | 5000 | 0.94 | – | Nc1nc(NC2CCN(S(=O)(=O)c3ccc(N4CC[S+]([O-])CC4)nc3)CC2)sc1C(=O)c1c(F)cccc1F [Example G4, 1-(4-Amino-2-{1-[6-(1-oxo-thiomorpholine-4-yl)-pyridine-3-sulfonyl]-piperidin-4-ylamino}-thiazol-5-yl)-1-(2,6-difluoro-phenyl)-methanone]
1.3 | 29 | > 500 | 1.3 | – | CN1CCN(c2ccc(S(=O)(=O)N3CCC(Nc4nc(N)c(C(=O)c5c(F)cccc5F)s4)CC3)cn2)CC1 [Example G5, 1-(4-Amino-2-{1-[6-(4-methyl-piperazin-1-yl)-pyridine-3-sulfonyl]-piperidin-4-ylamino}-thiazol-5-yl)-1-(2,6-difluoro-phenyl)-methanone]
0.69 | 210 | 3200 | 0.54 | – | Nc1nc(NC2CCN(S(=O)(=O)c3ccc(N4CCNCC4)nc3)CC2)sc1C(=O)c1c(F)cccc1F [Example G6, 1-{4-Amino-2-[1-(6-piperazin-1-yl-pyridine-3-sulfonyl)-piperidin-4-ylamino]-thiazol-5-yl}-1-(2,6-difluoro-phenyl)-methanone]
0.75 | 180 | 650 | 1.6 | – | CNc1ccc(S(=O)(=O)N2CCC(Nc3nc(N)c(C(=O)c4c(F)cccc4F)s3)CC2)cn1 [Example G7, 1-{4-Amino-2-[1-(6-methylamino-pyridine-3-sulfonyl)-piperidin-4-ylamino]-thiazol-5-yl}-1-(2,6-difluoro-phenyl)-methanone]
0.6 | 590 | 2200 | 1.9 | – | Nc1ccc(S(=O)(=O)N2CCC(Nc3nc(N)c(C(=O)c4c(F)cccc4F)s3)CC2)cn1 [Example G8, 1-{4-Amino-2-[1-(6-amino-pyridine-3-sulfonyl)-piperidin-4-ylamino]-thiazol-5-yl}-1-(2,6-difluoro-phenyl)-methanone]
0.52 | 170 | 1800 | 2.2 | – | Nc1nc(NC2CCN(S(=O)(=O)c3ccc(N4CCC(O)CC4)nc3)CC2)sc1C(=O)c1c(F)cccc1F [Example G9, 1-{4-Amino-2-[1-(4Hydroxy-3,4,5,6-tetrahydro-2H-[1,2′]bipyridinyl-5′-sulfonyl)-piperidin-4-ylamino]-thiazol-5-yl}-1-(2,6-difluoro-phenyl)-methanone]
< 1 | 670 | > 5000 | 1.2 | – | CN(CCO)c1ccc(S(=O)(=O)N2CCC(Nc3nc(N)c(C(=O)c4c(F)cccc4F)s3)CC2)cn1 [Example G10]
< 1 | 420 | > 5000 | 0.86 | – | Nc1nc(NC2CCN(S(=O)(=O)c3ccc(N4CCC(O)C4)nc3)CC2)sc1C(=O)c1c(F)cccc1F (stereo not drawn) [Example G11, 1-(4-Amino-2-{1-[6-(3-hydroxy-pyrrolidin-1-yl)-pyridin-3-sulfonyl]-piperidin-4-ylamino}-thiazol-5-yl)-1-(2,6-difluoro-phenyl)-methanone Trifluoroacetic Acid Salt]
0.49 | 280 | > 500 | 1.2 | – | Nc1nc(NC2CCN(S(=O)(=O)c3ccc(N4CCCC(O)C4)nc3)CC2)sc1C(=O)c1c(F)cccc1F (stereo not drawn) [Example G12, 1-{4-Amino-2-[1-(3-hydroxy-3,4,5,6-tetrahydro-2H-[1,2′]bipyridinyl-5′-sulfonyl)-piperidin-4-ylamino]-thiazol-5-yl}-1-(2,6-difluoro-phenyl)-methanone Trifluoroacetic Acid Salt]
< 1 | 170 | 3900 | 0.64 | – | Nc1nc(NC2CCN(S(=O)(=O)c3ccc(N4CCC[C@@H]4CO)nc3)CC2)sc1C(=O)c1c(F)cccc1F [Example G13, 1-{4-Amino-2-{1-[6-(2R-hydroxymethyl-pyrrolidin-1-yl)-pyridine-3-sulfonyl]-piperidin-4-ylamino}-thiazol-5-yl)-1-(2,6-difluoro-phenyl)-methanone Trifluoroacetic Acid Salt]
